# Laboratory results reported in paper PMC11372076, “A dual inhibitor of PIP5K1C and PIKfyve prevents SARS-CoV-2 entry into cells” (Experimental & Molecular Medicine, 2024).
# pEC50, pIC50: −log10 of the molar value. Like-named read-outs stand apart in the source and are kept apart here.
# Experiments:
# SARS-CoV-2 = assay: microbe, parasite or virus in culture; type: cell-based, SARS-CoV-2 (hCoV-19/Korea/KCDC06/2020); conditions: for pEC50: read-out: EC50 (reducing number of spike-positive cells by 50%)
# in vitro = conditions: African green monkey
# [1] = tested on: ACE2-mediated endocytosis in HEK293T cells; type: cell-based; conditions: 20 μg/mL spike-RBD, 2 h
# Vero cells [2] = tested on: Vero cells
# cathepsin D = assay: Cathepsin D maturation by Western blot; type: cell-based
# RPE1 cells [3] = assay: Vacuolization analysis; type: cell-based
# Protocol: CUGAUCAAGAU G A -3 and PIKfyve#2 siRNA 5'-
# […] -3'. siRNA oligonucleotides were purchased from Genolution, Sigma- Aldrich and Integrated DNA Technologies.
# These siRNAs were transfected into the cell using lipofectamine RNAiMAX (Invitrogen, 13778150) following manufacturer ’s protocol.
# RPE1 cells were treated with UNI418 at indicated concentration for over-night.
# After that, the image was taken by EVOS M5000 (Thermo Fisher Scientific).
# RPE1 cells were treated with UNI418 at the different concentration during the time. Live cell images were taken by Lionheart LX Automated Microscope and analyzed in Gen5 (Agilent).
# RPE1 cells were treated with indicated doses of UNI418 overnight. To analyze PIP2 level by flow cytometry, trypsinized cells were fixed with 4% paraformaldehyde for 10 min at room temperature. The fixed cells were permeabilized with 0.2% PBS-T (Triton X-100) for 5min and blocked with 5% Bovine Serum Albumin (BSA), and stained with the primary antibody for 4h at 4°C. Cells were washed three times with 1% BSA-PBS and incubated with the fluorescence- conjugated secondary antibody Alexa Fluor® 488 AffiniPure Goat Anti-Mouse IgG (H+L) (Jackson ImmunoResearch,111- 545- 003) for 1h at room temperature analyzed by BD Accuri C6 Plus flow cytometer (BD Biosciences). […]
# RPE1 cells [4] = assay: Western blot of autophagy-monitoring proteins SQSTM1/p62 and LC3-II; type: cell-based
# Text: Fig. 2 UNI418 inhibits autophagy. a Western blot analysis of p62, LC3B-I, LC3B-II and GAPDH in the presence of UNC3230, apilimod and UNI418. b Immunofluorescence staining with LC3B (green) and p62 (red) antibodies upon treatment with UNC3230, apilimod and UNI418, and images within the white rectangular boxes are magnified on the right side. Scale bar, 20 µm. c The area of fluorescence intensity from immunofluorescence images (b) was quantified after UNC3230, apilimod and UNI418 treatments. d, e Quantification of autophagic flux under normal conditions and under HBSS-induced starvation conditions with or without UNI418 treatment. RPE1 cells were treated with UNI418 (0.5 µM or 1 µM) for 2 h in the presence or absence of a lysosomal inhibitor (bafilomycin A1, BFA). Representative Western blot images (d) and the graph showing the average of 4 independent experiments (e). The error bars indicate the S.D. Statistical analysis was performed using two-way ANOVA; *p < 0.05, ***p < 0.001.
# Supplementary Materials and Methods
# The whole cell extracts were prepared by lysis of harvested cells with M -PER Mammalian protein extraction reagent (Thermo Fisher Scientific). The protein concentrations were determined by Bradford protein assay (Bio- Rad). The 10 to 20 μ g of prepared proteins were separated by the SDS-PAGE and transferred to PVDF membrane, which were then blocked in 5% skim milk for 30 minutes at room temperature. […] The images were obtained and quantified by Fusion solo ChemiDoc system (Vilber).
# Autophagic flux assay was analyzed essentially as previously described1,2.
# Briefly, RPE1 cells were treated with UNI418 (0, 0.5, or 1 µM) for 2 h with/without bafilomycin A1 to inhibit lysosomal degradation under normal growth media or HBSS. […] The LC3- II bands were quantified using Fusion Solo ChemiDoc system (Vilber) and normalized to GAPDH bands.
# Autophagy flux was calculated by subsidizing the lysosomal inhibitor-treated cells to non- treatment cells in both normal growth media and HBSS-induced starvation with 0, 0.5, or 1 µM UNI418. […]
# [5] = tested on: Wuhan-Hu-1 spike-pseudotyped virus; assay: microbe, parasite or virus in culture; type: cell-based, SARS-CoV-2; conditions: read-out: concentration that inhibited spike-mediated viral entry by 50% compared to maximal inhibition
# Vero cells [6] = assay: Endosomal pH change test with acridine orange; type: cell-based; conditions: 1 µM for 1 h
# Protocol: This image-based experiment was performed according to our previous report with some modifications. Vero cells were cultured in a glass bottom 35 mm dish (6 × 10^4 cells per well) overnight. Each compound, including 1 µM UNC3230, apilimod or UNI418, was added to Vero cells for 1 h at 37 °C. The cells were stained with acridine orange (Sigma‒Aldrich, A9231) at a final concentration of 4 µg/mL for 30 min. After washing with PBS twice, images were acquired using a confocal microscope (Zeiss LSM 700, Baden-Württemberg, Germany) at two emission wavelengths, 493 to 560 nm and 590 to 720 nm, with excitation at 488 nm. The green-to-red ratio or vacuole size was measured using the built-in software ZEN 3.1.
# Fig. 3 UNI418 negatively affects autophagosome-lysosome fusion and endosome acidification. a Live-cell imaging of HEK293T cells stably expressing mCherry-GFP-LC3 treated with 0.5 μM UNI418 at the indicated time points; the images within the white rectangular boxes are magnified on the right side. Scale bar, 30 µm. The number (b) and area (c) of GFP-positive dots per cell were quantified by ImageXpress. d Immunofluorescence images illustrating the inhibition of endolysosomal acidification by UNI418. Vero cells were treated with the mock control or 1 µM UNC3230, apilimod or UNI418 for 1 h at 37 °C. Acridine orange (4 µg/mL) was added to the compound-treated live cells, followed by additional incubation for 30 min. The cells were analyzed by confocal microscopy using two emission wavelengths at 493–560 (green) and 590–720 nm (red) after excitation at 488 nm. Merged images are presented, and images within the white rectangular boxes are magnified on the right side. Original magnification, 630×. The green-to-red fluorescence intensity ratio (e) and the area of fluorescent spots (f) were quantified. b, c, e, f The data are presented as the means ± SEMs, with a minimum of 200 spots. Statistical significance was determined by Student’s t test; *p < 0.05, **p < 0.01, ***p < 0.001 and ****p < 0.0001. n.s., not significant.
compound,measurement,setting,value
CCC(CC)COC(=O)[C@H](C)N[P@](=O)(OC[C@H]1O[C@@](C#N)(c2ccc3c(N)ncnn23)[C@H](O)[C@@H]1O)Oc1ccccc1 [remdesivir],pEC50,"SARS-CoV-2; Severe acute respiratory syndrome coronavirus 2, Vero, 48 h",5.05
same,"selectivity index (SI), ratio of CC50 to EC50","SARS-CoV-2; Vero cells, Day 2",> 11.2
same,CC50,in vitro,> 100 µM
O=C(N/N=C/c1ccc(O)c(O)c1)c1cc2ccccc2cc1O [dynasore],ACE2-mediated endocytosis triggered by spike-RBD,[1]; 0.1 mM dynasore,successfully inhibited
NC(=O)c1nc(Nc2ccccc2)sc1NC(=O)C1CCCCC1 [UNC3230],pEC50,SARS-CoV-2,4.02
same,cytotoxicity on Day 2,"Vero cells [2]; Vero cells, Day 2",highly toxic
same,CC50,"Vero cells [2]; mock-infected Vero cells, MTT, Day 1",> 100 µM
same,proteolytic cleavage (maturation) of cathepsin D,cathepsin D,did not
same,ACE2-mediated endocytosis triggered by spike-RBD,[1]; 0.5 μM compound,successfully inhibited
same,vacuolization,RPE1 cells [3],did not induce vacuoles
same,accumulation of SQSTM1/p62 and LC3-II,RPE1 cells [4],did not have the same effect
same,pIC50,[5],5.40
same,green-to-red ratio of fluorescent spots relative to mock-treated sample,Vero cells [6],2.6 fold
